Measurements: patent publication US7932262B2 (Novartis AG, priority 2006, dated 2011)
pEC50, pIC50: −log10 of the molar value.

What was measured:
PDK1 kinase = target: T1, PDK1 kinase (Homo sapiens, UniProt O15530); assay: PDK1 Kinase Alpha Screen Assay; assay type: biochemical; conditions: read-out: PDK1 IC50
T1 sequence (O15530 1-556): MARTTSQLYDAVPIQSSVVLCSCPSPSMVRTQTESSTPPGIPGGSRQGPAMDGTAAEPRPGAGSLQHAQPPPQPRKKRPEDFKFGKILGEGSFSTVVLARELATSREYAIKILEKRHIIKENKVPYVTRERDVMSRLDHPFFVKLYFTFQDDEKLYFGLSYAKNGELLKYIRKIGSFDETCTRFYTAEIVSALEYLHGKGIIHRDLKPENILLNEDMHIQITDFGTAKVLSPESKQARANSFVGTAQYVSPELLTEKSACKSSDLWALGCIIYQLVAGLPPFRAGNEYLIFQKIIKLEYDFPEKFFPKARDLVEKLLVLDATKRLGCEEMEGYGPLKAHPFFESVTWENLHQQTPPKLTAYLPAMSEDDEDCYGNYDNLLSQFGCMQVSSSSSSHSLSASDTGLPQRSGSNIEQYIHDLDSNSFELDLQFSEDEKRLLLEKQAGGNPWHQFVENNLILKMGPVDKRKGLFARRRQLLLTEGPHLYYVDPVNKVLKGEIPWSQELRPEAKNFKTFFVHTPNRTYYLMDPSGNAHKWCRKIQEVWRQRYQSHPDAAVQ
Summary of the method: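 Biotinylated PDK1-4 peptide (50 nM) phosphorylated by PDK1 with 10 uM ATP in pH 7.5 Tris/MgCl2/DTT buffer, 2.5% DMSO, for 3-18 hours. EDTA stop, then AlphaScreen detection with phospho-(Ser/Thr) PKA substrate antibody and protein A/streptavidin beads after overnight room-temperature development.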

PC-3 cells = assay: Cell Proliferation Assay (Cell Titer Glo), PC-3 cell line; assay type: cell-based; conditions: Homo sapiens, PC-3, PC3 cells; read-out: CPEC50 PC3
Summary of the method: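 PC-3 cells, 1000 cells/well, left to adhere 3-5 h, then exposed for 3 days at 37° C to compounds as 1:3 serial dilutions from 500× DMSO stocks diluted in growth medium. Medium then replaced with fresh medium and viability read by Cell Titer Glo luminescence.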

SMILES | pIC50 (PDK1 kinase) | pEC50 (PC-3 cells)
Cn1cc(-c2ccc3cnc(Nc4ccc(S(N)(=O)=O)cc4)nc3c2-c2ccc(NCCN3CCCC3)nc2)cn1 [Compound 945, 4-(7-(1-methyl-1H-pyrazol-4-yl)-8-(6-(2-(pyrrolidin-1-yl)ethylamino)pyridin-3-yl)quinazolin-2-ylamino)benzenesulfonamide] | > 5.30 | > 5.30
CC(C)NCc1cncc(-c2cccc3cnc(Nc4ccc(S(N)(=O)=O)cc4)nc23)c1 [Compound 946, 4-(8-(5-((isopropylamino)methyl)pyridin-3-yl)quinazolin-2-ylamino)benzenesulfonamide] | > 5.30 | > 5.30
NC(=O)C1CCN(Cc2cncc(-c3cccc4cnc(Nc5ccc(S(N)(=O)=O)cc5)nc34)c2)CC1 [Compound 947, 1-((5-(2-(4-sulfamoylphenylamino)quinazolin-8-yl)pyridin-3-yl)methyl)piperidine-4-carboxamide] | > 5.30 | 5.00 to 5.30
NS(=O)(=O)c1ccc(Nc2ncc3cccc(-c4cncc(CNC5CCOCC5)c4)c3n2)cc1 [Compound 948, 4-(8-(5-((tetrahydro-2H-pyran-4-ylamino)methyl)pyridin-3-yl)quinazolin-2-ylamino)benzenesulfonamide] | > 5.30 | > 5.30
CC(=O)N1CCN(Cc2cncc(-c3cccc4cnc(Nc5ccc(S(N)(=O)=O)cc5)nc34)c2)CC1 [Compound 949, 4-(8-(5-((4-acetylpiperazin-1-yl)methyl)pyridin-3-yl)quinazolin-2-ylamino)benzenesulfonamide] | > 5.30 | 5.00 to 5.30
CN(Cc1cncc(-c2cccc3cnc(Nc4ccc(S(N)(=O)=O)cc4)nc23)c1)C1CCOCC1 [Compound 950, 4-(8-(5-((methyl(tetrahydro-2H-pyran-4-yl)amino)methyl)pyridin-3-yl)quinazolin-2-ylamino)benzenesulfonamide] | > 5.30 | > 5.30
CN(C)[C@@H]1CCN(c2ccc(-c3cccc4cnc(Nc5ccc(S(N)(=O)=O)cc5)nc34)cn2)C1 [Compound 951, (R)-4-(8-(6-(3-(dimethylamino)pyrrolidin-1-yl)pyridin-3-yl)quinazolin-2-ylamino)benzenesulfonamide] | > 5.30 | > 5.30
CN(C)[C@H]1CCN(c2ccc(-c3cccc4cnc(Nc5ccc(S(N)(=O)=O)cc5)nc34)cn2)C1 [Compound 952, (S)-4-(8-(6-(3-(dimethylamino)pyrrolidin-1-yl)pyridin-3-yl)quinazolin-2-ylamino)benzenesulfonamide] | > 5.30 | > 5.30
NS(=O)(=O)c1ccc(Nc2ncc3cccc(-c4ccc(NCCN5CCOCC5)nc4)c3n2)cc1 [Compound 953, 4-(8-(6-(2-morpholinoethylamino)pyridin-3-yl)quinazolin-2-ylamino)benzenesulfonamide] | > 5.30 | > 5.30
CCN(CC)CCNc1ccc(-c2cccc3cnc(Nc4ccc(S(N)(=O)=O)cc4)nc23)cn1 [Compound 954, 4-(8-(6-(2-(diethylamino)ethylamino)pyridin-3-yl)quinazolin-2-ylamino)benzenesulfonamide] | > 5.30 | > 5.30
CN1CCC(Nc2ccc(-c3cccc4cnc(Nc5ccc(S(N)(=O)=O)cc5)nc34)cn2)CC1 [Compound 955, 4-(8-(6-(1-methylpiperidin-4-ylamino)pyridin-3-yl)quinazolin-2-ylamino)benzenesulfonamide] | > 5.30 | > 5.30
CC(C)N1CCN(c2ccc(-c3cccc4cnc(Nc5ccc(S(N)(=O)=O)cc5)nc34)cn2)CC1 [Compound 956, 4-(8-(6-(4-isopropylpiperazin-1-yl)pyridin-3-yl)quinazolin-2-ylamino)benzenesulfonamide] | > 5.30 | > 5.30
NS(=O)(=O)c1ccc(Nc2ncc3cccc(-c4cncc(C(=O)O)c4)c3n2)cc1 [Compound 962, 5-(2-(4-sulfamoylphenylamino)quinazolin-8-yl)nicotinic acid] | 5.00 to 5.30 | 5.00 to 5.30
NS(=O)(=O)c1ccc(Nc2ncc3cc(C(F)(F)F)cc(-c4ccc(NCCN5CCCC5)nc4)c3n2)cc1 [Compound 963, 4-(8-(6-(2-(pyrrolidin-1-yl)ethylamino)pyridin-3-yl)-6-(trifluoromethyl)quinazolin-2-ylamino)benzenesulfonamide] | > 5.30 | > 5.30
CN1CCN(c2ccc(-c3cc(C(F)(F)F)cc4cnc(Nc5ccc(S(N)(=O)=O)cc5)nc34)cn2)CC1 [Compound 964, 4-(8-(6-(4-methylpiperazin-1-yl)pyridin-3-yl)-6-(trifluoromethyl)quinazolin-2-ylamino)benzenesulfonamide] | 5.00 to 5.30 | > 5.30
NS(=O)(=O)c1ccc(Nc2ncc3cc(C(F)(F)F)cc(-c4ccc(N5CCNC(=O)C5)nc4)c3n2)cc1 [Compound 965, 4-(8-(6-(3-oxopiperazin-1-yl)pyridin-3-yl)-6-(trifluoromethyl)quinazolin-2-ylamino)benzenesulfonamide] | > 5.30 | > 5.30
CC(C)NCCCNc1ccc(-c2cccc3cnc(Nc4ccc(S(N)(=O)=O)cc4)nc23)cn1 [Compound 971, 4-(8-(6-(3-(isopropylamino)propylamino)pyridin-3-yl)quinazolin-2-ylamino)benzenesulfonamide] | > 5.30 | > 5.30
NS(=O)(=O)c1ccc(Nc2ncc3cccc(-c4ccc(NCCCN5CCCC5)nc4)c3n2)cc1 [Compound 972, 4-(8-(6-(3-(pyrrolidin-1-yl)propylamino)pyridin-3-yl)quinazolin-2-ylamino)benzenesulfonamide] | > 5.30 | > 5.30
CCN1CCC[C@H]1CNc1ccc(-c2cccc3cnc(Nc4ccc(S(N)(=O)=O)cc4)nc23)cn1 [Compound 973, (S)-4-(8-(6-((1-ethylpyrrolidin-2-yl)methyamino)-pyridin-3-yl)quinazolin-2-ylamino)benzenesulfonamide] | > 5.30 | > 5.30
CCN1CCC[C@@H]1CNc1ccc(-c2cccc3cnc(Nc4ccc(S(N)(=O)=O)cc4)nc23)cn1 [Compound 974, (R)-4-(8-(6-((1-ethylpyrrolidin-2-yl)methylamino)pyridin-3-yl)quinazolin-2-ylamino)benzenesulfonamide] | > 5.30 | > 5.30
CN1CCC(CNc2ccc(-c3cccc4cnc(Nc5ccc(S(N)(=O)=O)cc5)nc34)cn2)CC1 [Compound 975, 4-(8-(6-((1-methylpiperidin-4-yl)methylamino)pyridin-3-yl)quinazolin-2-ylamino)benzenesulfonamide] | > 5.30 | > 5.30
CN(C)[C@@H]1CCN(C(=O)c2cncc(-c3cccc4cnc(Nc5ccc(S(N)(=O)=O)cc5)nc34)c2)C1 [Compound 976, (R)-4-(8-(5-(3-(dimethylamino)pyrrolidine-1-carbonyl)pyridin-3-yl)quinazolin-2-ylamino)benzenesulfonamide] | > 5.30 | 5.00 to 5.30
CN1CCN(C(=O)c2cncc(-c3cccc4cnc(Nc5ccc(S(N)(=O)=O)cc5)nc34)c2)CC1 [Compound 977, 4-(8-(5-(4-methylpiperazine-1-carbonyl)pyridin-3-yl)quinazolin-2-ylamino)benzenesulfonamide] | > 5.30 | 5.00 to 5.30
CN(C)[C@H]1CCN(C(=O)c2cncc(-c3cccc4cnc(Nc5ccc(S(N)(=O)=O)cc5)nc34)c2)C1 [Compound 978, (S)-4-(8-(5-(3-(dimethylamino)pyrrolidine-1-carbonyl)pyridin-3-yl)quinazolin-2-ylamino)benzenesulfonamide] | > 5.30 | 5.00 to 5.30
NS(=O)(=O)c1ccc(Nc2ncc3cccc(-c4cncc(C(=O)NCCN5CCCC5)c4)c3n2)cc1 [Compound 979, N-(2-(pyrrolidin-1-yl)ethyl)-5-(2-(4-sulfamoylphenylamino)quinazolin-8-yl)nicotinamide] | > 5.30 | 5.00 to 5.30
CN(C)C1CCN(C(=O)c2cncc(-c3cccc4cnc(Nc5ccc(S(N)(=O)=O)cc5)nc34)c2)CC1 [Compound 980, 4-(8-(5-(4-(dimethylamino)piperidine-1-carbonyl)pyridin-3-yl)quinazolin-2-ylamino)benzenesulfonamide] | > 5.30 | 5.00 to 5.30
CN1CCC(NC(=O)c2cncc(-c3cccc4cnc(Nc5ccc(S(N)(=O)=O)cc5)nc34)c2)CC1 [Compound 981, N-(1-methylpiperidin-4-yl)-5-(2-(4-sulfamoylphenylamino)quinazolin-8-yl)nicotinamide] | > 5.30 | 5.00 to 5.30
CN1CCC(CNC(=O)c2cncc(-c3cccc4cnc(Nc5ccc(S(N)(=O)=O)cc5)nc34)c2)CC1 [Compound 982, N-((1-methylpiperidin-4-yl)methyl)-5-(2-(4-sulfamoylphenylamino)quinazolin-8-yl)nicotinamide] | > 5.30 | 5.00 to 5.30
